Experimental data from publication PMC7915026, “Sulfaguanidine Hybrid with Some New Pyridine-2-One Derivatives: Design, Synthesis, and Antimicrobial Activity against Multidrug-Resistant Bacteria as Dual DNA Gyrase and DHFR Inhibitors” (Antibiotics, 2021).
≈ marks a conversion by molar mass, not a printed value. Where two headings read alike, the source gives them in different places.

How the values were obtained:
[1] = system: CD4+ and CD8+ T lymphocytes; experiment: In vivo T lymphocyte subsets from peripheral blood, flow cytometry; details: mice
From the text: Activation of immune cells as CD4^+ and CD8^+ T cells is one possible mechanism of a drug’s immune stimulus activity. An increase in these cells is thought to be a good indicator of an active immune response to infections. So, our work extended to study the effect of the most promising derivatives (2d, 8, and 11) on T lymphocyte subsets (CD4^+ and CD8^+) from peripheral blood, and determined the relative level in model mice that analyzed by flow cytometry after the period of treating.
In vitro intracellular killing activities for the most promising six derivatives 2a, 2b, 2d, 3a, 8, and 11 were performed according to reported methods.

spleen and thymus = experiment: In vivo immunomodulation: immune organ weight and indexes; details: mice
From the text: Both the spleen and thymus have important antibacterial and fungal immune organ responses, and any change in weight, and indexes can reflect the level of immune regulation. Additionally, the relative spleen and thymus indexes are important indices for nonspecific immunity and potential immunomodulatory compounds that increase the spleen and thymus weight. This increase is due to immune cells’ stimulation in the spleen and thymus. […]

E. coli ATCC 25922 [2] = experiment: MIC and MBC determination; assay type: cell-based; details: Escherichia coli, ATCC25922, E. coli
C. albicans (ATCC 10231) [3] = experiment: MIC and MFC determination; assay type: cell-based
E. faecalis ATCC 29212 [4] = experiment: MIC and MBC determination; assay type: cell-based; details: Enterococcus faecalis, ATCC29212, E. faecalis
[5] = system: Salmonella typhi (S. typhi ATCC 6539); experiment: microbe, parasite or virus in culture; assay type: cell-based; details: Salmonella enterica, Salmonella typhi
S. aureus ATCC 29213 [6] = experiment: MIC and MBC determination; assay type: cell-based; details: Staphylococcus aureus, ATCC29213, S. aureus
S. aureus ATCC 33591 [7] = experiment: Inhibition zone against multidrug-resistant bacteria; assay type: cell-based; details: MDRB S. aureus ATCC 33591
From the text: (§1) Norfloxacin was used as a positive control for the multidrug resistance study.
(§2) The antimicrobial activity performed at the bacteriology laboratory, Botany and Microbiology Department, Faculty of Science, Al-Azhar University, Cairo, Egypt. The inhibition zone (IZ) of the tested derivatives expressed as the diameter (mm) according to the agar plate diffusion method.

E. coli ATCC BAA-196 [8] = experiment: as above; assay type: cell-based; details: MDRB E. coli ATCC BAA-196
From the text: as §1, §2

[9] = system: P. aeruginosa ATCC BAA-2111; experiment: as above; assay type: cell-based; details: MDRB P. aeruginosa ATCC BAA-2111
From the text: as §1, §2

S. aureus ATCC 43300 [10] = experiment: as above; assay type: cell-based; details: MDRB S. aureus ATCC 43300
From the text: as §1, §2

B. subtilis ATCC 6633 [11] = experiment: MIC and MBC determination; assay type: cell-based; details: Bacillus subtilis, ATCC6633, B. subtilis
[12] = system: F. oxysporum (RCMB 008002); experiment: MIC and MFC determination; assay type: cell-based
S. aureus ATCC 33591 [13] = experiment: MIC and MBC against multidrug-resistant strains; assay type: cell-based; details: Staphylococcus aureus, ATCC33591, S. aureus ATCC 33591
From the text: as §1
(§3) The experiment was repeating for three-times.

E. coli ATCC BAA-196 [14] = experiment: MIC and MBC against multidrug-resistant strains; assay type: cell-based; details: E. coli ATCC BAA-196
From the text: as §1, §3

[15] = system: P. aeruginosa ATCC BAA-2111; experiment: MIC and MBC against multidrug-resistant strains; assay type: cell-based; details: P. aeruginosa ATCC BAA-2111
From the text: as §1, §3

S. aureus ATCC 43300 [16] = experiment: MIC and MBC against multidrug-resistant strains; assay type: cell-based; details: Staphylococcus aureus, ATCC43300, S. aureus ATCC 43300
From the text: as §1, §3

S. aureus DNA gyrase = S. aureus DNA gyrase (Staphylococcus aureus, UniProt P0A0K8+P20831); experiment: In vitro DNA gyrase supercoiling enzymatic assay; assay type: biochemical
P. aeruginosa ATCC 27853 [17] = experiment: MIC and MBC determination; assay type: cell-based; details: Pseudomonas aeruginosa, ATCC27853, P. aeruginosa
[18] = system: F. oxysporum (RCMB 008002); experiment: Inhibition zone, paper disk/agar diffusion; assay type: cell-based; details: Na = no activity
From the text: as §2

E. faecalis ATCC 29212 [19] = experiment: Inhibition zone, paper disk/agar diffusion; assay type: cell-based; details: E. faecalis; Na = no activity
From the text: as §2

P. aeruginosa ATCC 27853 [20] = experiment: Inhibition zone, paper disk/agar diffusion; assay type: cell-based; details: P. aeruginosa; Na = no activity
From the text: as §2

S. aureus ATCC 29213 [21] = experiment: Inhibition zone, paper disk/agar diffusion; assay type: cell-based; details: S. aureus; Na = no activity
From the text: as §2

B. subtilis ATCC 6633 [22] = experiment: Inhibition zone, paper disk/agar diffusion; assay type: cell-based; details: B. subtilis; Na = no activity
From the text: as §2

E. coli ATCC 25922 [23] = experiment: Inhibition zone, paper disk/agar diffusion; assay type: cell-based; details: E. coli; Na = no activity
From the text: as §2

C. albicans (ATCC 10231) [24] = experiment: Inhibition zone, paper disk/agar diffusion; assay type: cell-based; details: Na = no activity
From the text: as §2

S. typhi ATCC 6539 = experiment: Inhibition zone, paper disk/agar diffusion; assay type: cell-based; details: S. typhi; Na = no activity
From the text: as §2

Sequence of S. aureus DNA gyrase (P20831 whole entry): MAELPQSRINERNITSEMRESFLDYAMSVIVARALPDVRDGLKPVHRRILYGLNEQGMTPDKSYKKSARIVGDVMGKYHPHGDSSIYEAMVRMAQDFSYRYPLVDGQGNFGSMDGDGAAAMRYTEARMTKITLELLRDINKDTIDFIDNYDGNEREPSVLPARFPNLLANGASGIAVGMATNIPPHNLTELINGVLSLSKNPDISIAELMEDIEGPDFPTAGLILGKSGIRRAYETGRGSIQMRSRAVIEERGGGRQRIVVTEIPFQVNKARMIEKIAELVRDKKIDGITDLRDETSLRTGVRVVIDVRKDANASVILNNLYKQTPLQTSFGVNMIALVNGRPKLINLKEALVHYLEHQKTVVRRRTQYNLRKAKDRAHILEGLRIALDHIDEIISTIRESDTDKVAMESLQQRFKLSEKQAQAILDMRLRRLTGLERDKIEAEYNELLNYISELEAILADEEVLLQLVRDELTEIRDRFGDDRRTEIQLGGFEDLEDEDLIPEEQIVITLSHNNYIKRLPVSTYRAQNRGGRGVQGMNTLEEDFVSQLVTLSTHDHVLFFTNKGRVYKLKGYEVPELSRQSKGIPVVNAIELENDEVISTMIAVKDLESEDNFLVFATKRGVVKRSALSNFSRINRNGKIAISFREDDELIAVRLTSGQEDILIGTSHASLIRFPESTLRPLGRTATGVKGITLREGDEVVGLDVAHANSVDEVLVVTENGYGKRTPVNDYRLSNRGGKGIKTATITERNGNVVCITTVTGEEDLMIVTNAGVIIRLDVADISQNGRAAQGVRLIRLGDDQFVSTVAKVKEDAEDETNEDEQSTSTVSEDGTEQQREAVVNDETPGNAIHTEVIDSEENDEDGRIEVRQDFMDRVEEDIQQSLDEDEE
Sequence of S. aureus DNA gyrase (P0A0K8 whole entry): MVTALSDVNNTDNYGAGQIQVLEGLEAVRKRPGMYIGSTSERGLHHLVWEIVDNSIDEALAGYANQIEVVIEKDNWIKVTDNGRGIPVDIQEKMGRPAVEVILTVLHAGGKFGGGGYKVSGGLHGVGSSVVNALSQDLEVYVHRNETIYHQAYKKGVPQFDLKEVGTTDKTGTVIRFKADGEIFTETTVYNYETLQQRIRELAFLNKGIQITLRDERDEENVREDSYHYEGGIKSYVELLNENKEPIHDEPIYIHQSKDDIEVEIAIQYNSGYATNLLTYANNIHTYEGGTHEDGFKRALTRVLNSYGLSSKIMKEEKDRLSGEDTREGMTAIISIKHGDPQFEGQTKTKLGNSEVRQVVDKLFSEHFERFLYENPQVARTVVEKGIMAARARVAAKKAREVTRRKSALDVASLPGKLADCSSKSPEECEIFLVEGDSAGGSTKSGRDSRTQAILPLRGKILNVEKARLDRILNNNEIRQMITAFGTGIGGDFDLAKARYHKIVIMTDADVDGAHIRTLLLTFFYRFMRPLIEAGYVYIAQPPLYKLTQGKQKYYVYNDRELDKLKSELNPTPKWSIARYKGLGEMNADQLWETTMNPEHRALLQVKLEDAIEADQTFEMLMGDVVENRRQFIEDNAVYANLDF

O=C1O[C@H]([C@@H](O)CO)C(O)=C1O [Vitamin C, vitamin C, reference compound]
T cells CD4+ [1]: 76.74 ± 0.7% | T cells CD8+ [1]: 19.62 ± 0.21% | Spleen weight (spleen and thymus): 260 ± 0.028 mg | Thymus index (spleen and thymus): 0.633 ± 0.06 mg/g | Thymus weight (spleen and thymus): 17.2 ± 0.31 mg

COc1ccc(/C=C(\C#N)C(=O)Nc2ccc(S(=O)(=O)NC(=N)N)cc2)cc1 [Compound 2b, N-(4-(N-Carbamimidoylsulfamoyl)phenyl)-2-cyano-3-(4-methoxyphenyl) acrylamide]
MBC (E. coli ATCC 25922 [2]; read-out: MBC): 219.1 ± 2.14 µM (≈ 87.5 µg/mL) | MIC (E. coli ATCC 25922 [2]; read-out: MIC): 156 ± 2.65 µM (≈ 62.5 µg/mL) | MFC/MIC (C. albicans (ATCC 10231) [3]): <2 | MFC (C. albicans (ATCC 10231) [3]; Candida albicans, ATCC10231, read-out: MFC): 133 ± 1.65 µM (≈ 53.1 µg/mL) | MIC (C. albicans (ATCC 10231) [3]; Candida albicans, ATCC10231, read-out: MIC): 78.2 ± 0.95 µM (≈ 31.2 µg/mL) | MBC (E. faecalis ATCC 29212 [4]; read-out: MBC): 46.3 ± 0.74 µM (≈ 18.5 µg/mL) | MIC (E. faecalis ATCC 29212 [4]; read-out: MIC): 23.1 ± 0.61 µM (≈ 9.25 µg/mL) | MBC ([5]; read-out: MBC): 70.4 ± 0.85 µM (≈ 28.1 µg/mL) | MIC ([5]; read-out: MIC): 39.1 ± 0.36 µM (≈ 15.6 µg/mL) | MBC (S. aureus ATCC 29213 [6]; read-out: MBC): 78.2 ± 0.87 µM (≈ 31.2 µg/mL) | MIC (S. aureus ATCC 29213 [6]; read-out: MIC): 39.1 ± 1.67 µM (≈ 15.6 µg/mL) | Mean Diameter of Inhibition Zone (S. aureus ATCC 33591 [7]): 21 ± 0.11 mm | Mean Diameter of Inhibition Zone (E. coli ATCC BAA-196 [8]): 22 ± 0.85 mm | Mean Diameter of Inhibition Zone [9]: 19 ± 0.16 mm | Mean Diameter of Inhibition Zone (S. aureus ATCC 43300 [10]): 20 ± 0.34 mm | MBC (B. subtilis ATCC 6633 [11]; read-out: MBC): 35.2 ± 1.25 µM (≈ 14 µg/mL) | MIC (B. subtilis ATCC 6633 [11]; read-out: MIC): 19.6 ± 0.39 µM (≈ 7.81 µg/mL) | MFC/MIC [12]: <2 | MFC ([12]; Fusarium oxysporum, RCMB008002, read-out: MFC): 222.3 ± 1.65 µM (≈ 88.8 µg/mL) | MIC ([12]; Fusarium oxysporum, RCMB008002, read-out: MIC): 139 ± 1.53 µM (≈ 55.5 µg/mL) | MBC (S. aureus ATCC 33591 [13]; read-out: MBC): 18.8 ± 0.21 µM (≈ 7.5 µg/mL) | MIC (S. aureus ATCC 33591 [13]; read-out: MIC): 9.38 ± 0.35 µM (≈ 3.75 µg/mL) | MBC (E. coli ATCC BAA-196 [14]): 9.38 ± 0.74 µM (≈ 3.75 µg/mL) | MIC (E. coli ATCC BAA-196 [14]): 4.69 ± 0.45 µM (≈ 1.87 µg/mL) | MBC (E. coli ATCC BAA-196 [14]; Escherichia coli, ATCCBAA196, read-out: MBC): 9.38 µM (≈ 3.75 µg/mL) | MIC (E. coli ATCC BAA-196 [14]; Escherichia coli, ATCCBAA196, read-out: MIC): 4.69 µM (≈ 1.87 µg/mL) | MBC [15]: 18.77 ± 0.87 µM (≈ 7.5 µg/mL) | MIC [15]: 9.38 ± 0.47 µM (≈ 3.75 µg/mL) | MBC ([15]; Pseudomonas aeruginosa, ATCCBAA2111, read-out: MBC): 18.8 µM (≈ 7.5 µg/mL) | MIC ([15]; Pseudomonas aeruginosa, ATCCBAA2111, read-out: MIC): 9.38 µM (≈ 3.75 µg/mL) | MBC (S. aureus ATCC 43300 [16]; read-out: MBC): 39.1 ± 0.54 µM (≈ 15.6 µg/mL) | MIC (S. aureus ATCC 43300 [16]; read-out: MIC): 19.6 ± 0.52 µM (≈ 7.81 µg/mL) | IC50 (S. aureus DNA gyrase): 29.1 ± 1.93 µM | MBC (P. aeruginosa ATCC 27853 [17]; read-out: MBC): 133 ± 1.02 µM (≈ 53.1 µg/mL) | MIC (P. aeruginosa ATCC 27853 [17]; read-out: MIC): 78.2 ± 1.24 µM (≈ 31.2 µg/mL) | Mean Diameter of the Inhibition Zone [18]: 17 ± 0.50 mm | Mean Diameter of the Inhibition Zone (E. faecalis ATCC 29212 [19]): 24 ± 0.35 mm | Mean Diameter of the Inhibition Zone (P. aeruginosa ATCC 27853 [20]): 21 ± 0.55 mm | Mean Diameter of the Inhibition Zone (S. aureus ATCC 29213 [21]): 21 ± 0.3 mm | Mean Diameter of the Inhibition Zone (B. subtilis ATCC 6633 [22]): 25 ± 0.87 mm | Mean Diameter of the Inhibition Zone (E. coli ATCC 25922 [23]): 23 ± 0.2 mm

N#CCC(=O)Nc1ccc(S(=O)(=O)NC(=N)N)cc1 [Compound 1, N-(4-(N-Carbamimidoylsulfamoyl)phenyl)-2-cyanoacetamide]
melting point: 172 to 174 °C | Mean Diameter of the Inhibition Zone [18]: 13 ± 0.54 mm | Mean Diameter of the Inhibition Zone (E. faecalis ATCC 29212 [19]): 19 ± 0.70 mm | Mean Diameter of the Inhibition Zone (P. aeruginosa ATCC 27853 [20]): 20±0.65 mm | Mean Diameter of the Inhibition Zone (C. albicans (ATCC 10231) [24]): 15 ± 0.63 mm | Mean Diameter of the Inhibition Zone (S. aureus ATCC 29213 [21]): 17 ± 0.50 mm | Mean Diameter of the Inhibition Zone (S. typhi ATCC 6539): 17 ± 0.54 mm | Mean Diameter of the Inhibition Zone (B. subtilis ATCC 6633 [22]): 14 ± 0.70 mm | Mean Diameter of the Inhibition Zone (E. coli ATCC 25922 [23]): 16 ± 0.35 mm

N#C/C(=C\c1ccc(O)cc1)C(=O)Nc1ccc(S(=O)(=O)NC(=N)N)cc1 [Compound 2c, N-(4-(N-Carbamimidoylsulfamoyl)phenyl)-2-cyano-3-(4-hydroxyphenyl) acrylamide]
melting point: 256 to 258 °C | Mean Diameter of the Inhibition Zone [18]: 14 ± 0.5 mm | Mean Diameter of the Inhibition Zone (E. faecalis ATCC 29212 [19]): 17 ± 0.37 mm | Mean Diameter of the Inhibition Zone (P. aeruginosa ATCC 27853 [20]): 20 ± 0.42 mm | Mean Diameter of the Inhibition Zone (C. albicans (ATCC 10231) [24]): 16 ± 0.52 mm | Mean Diameter of the Inhibition Zone (S. aureus ATCC 29213 [21]): 21 ± 0.85 mm | Mean Diameter of the Inhibition Zone (S. typhi ATCC 6539): 17 ± 0.24 mm | Mean Diameter of the Inhibition Zone (B. subtilis ATCC 6633 [22]): 20 ± 0.38 mm | Mean Diameter of the Inhibition Zone (E. coli ATCC 25922 [23]): 19 ± 0.75 mm

COc1ccc(-c2c(C(=O)Nc3ccc(S(=O)(=O)NC(=N)N)cc3)c(N)n(C3CCCCC3)c(=O)c2C#N)cc1 [Compound 4, 2-Amino-N-(4-(N-carbamimidoylsulfamoyl)phenyl)-5-cyano-1-cyclohexyl-4-(4-methoxyphenyl)-6-oxo-1,6-dihydropyridine-3-carboxamide]
melting point: 272 to 274 °C | Mean Diameter of the Inhibition Zone [18]: no activity | Mean Diameter of the Inhibition Zone (E. faecalis ATCC 29212 [19]): 25 ± 0.35 mm | Mean Diameter of the Inhibition Zone (P. aeruginosa ATCC 27853 [20]): 23 ± 0.74 mm | Mean Diameter of the Inhibition Zone (C. albicans (ATCC 10231) [24]): 20 ± 0.50 mm | Mean Diameter of the Inhibition Zone (S. aureus ATCC 29213 [21]): 24 ± 0.33 mm | Mean Diameter of the Inhibition Zone (S. typhi ATCC 6539): no activity | Mean Diameter of the Inhibition Zone (B. subtilis ATCC 6633 [22]): 23 ± 0.22 mm
